The record followed here is patent publication US9018206B2, “Carboxamide compounds and their use as calpain inhibitors” (AbbVie Deutschland GmbH & Co. KG, priority 2009, dated 2015).

A value given as a limit tells only on which side of the number the result lay.

Format in all cases: biochemical
Experiment [1] deals with T1, cathepsin K activated from recombinant human procathepsin K (Homo sapiens, UniProt P43235).
T1 construct: purchased Calbiochem 342001; host or cells: E. coli
T1 sequence (P43235 115-329): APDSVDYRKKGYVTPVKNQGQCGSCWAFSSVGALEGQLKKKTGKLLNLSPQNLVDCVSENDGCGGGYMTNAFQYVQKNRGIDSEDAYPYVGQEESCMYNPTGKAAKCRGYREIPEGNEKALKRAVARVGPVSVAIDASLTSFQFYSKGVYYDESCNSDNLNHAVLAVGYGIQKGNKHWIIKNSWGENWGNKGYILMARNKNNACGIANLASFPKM
Kind of experiment: Cathepsin K enzyme inhibition in vitro (kinetic fluorescence assay). Conditions: Ki(cathepsin K)/Ki(calpain) ratio. A digest of the protocol:
(§1)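 Kinetic AMC fluorescence (ex 390/em 460 nm), room temperature. Calpain-I 20 nM, 100 μM Suc-Leu-Tyr-AMC, imidazole/CaCl2 pH 7.3; cathepsins B 0.25 nM/100 μM Z-Phe-Arg-AMC, K 3 nM/10 μM Z-Gly-Pro-Arg-AMC, S 0.5 nM/20 μM Z-Val-Val-Arg-AMC, each MES/EDTA/cysteine pH 6.0. Ki from IC50 via Cheng-Prusoff, averaging 2–4 curves.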

The target of experiment [2] is T2, cathepsin B isolated from human liver (Homo sapiens, UniProt P07858).
T2 construct: cathepsin B—isolated from human liver; purchased Calbiochem 219362; host or cells: human liver (tissue-derived)
Kind of experiment: Cathepsin B enzyme inhibition in vitro (kinetic fluorescence assay). The settings on record: Ki(cathepsin B)/Ki(calpain) ratio. A digest of the protocol: as §1

Experiment [3] has as its target T3, recombinant human cathepsin S (Homo sapiens, UniProt P25774).
T3 construct: purchased Calbiochem 219343; host or cells: E. coli
Kind of experiment: Cathepsin S enzyme inhibition in vitro (kinetic fluorescence assay). Conditions: Ki(cathepsin S)/Ki(calpain) ratio. A digest of the protocol: as §1

For experiment [4], the target named is T4, calpain-I isolated from human erythrocytes (Homo sapiens, UniProt P07384).
T4 construct: calpain-I—isolated from human erythrocytes; purchased Calbiochem 208713; host or cells: human erythrocytes (tissue-derived)
T4 sequence (P07384 1-714): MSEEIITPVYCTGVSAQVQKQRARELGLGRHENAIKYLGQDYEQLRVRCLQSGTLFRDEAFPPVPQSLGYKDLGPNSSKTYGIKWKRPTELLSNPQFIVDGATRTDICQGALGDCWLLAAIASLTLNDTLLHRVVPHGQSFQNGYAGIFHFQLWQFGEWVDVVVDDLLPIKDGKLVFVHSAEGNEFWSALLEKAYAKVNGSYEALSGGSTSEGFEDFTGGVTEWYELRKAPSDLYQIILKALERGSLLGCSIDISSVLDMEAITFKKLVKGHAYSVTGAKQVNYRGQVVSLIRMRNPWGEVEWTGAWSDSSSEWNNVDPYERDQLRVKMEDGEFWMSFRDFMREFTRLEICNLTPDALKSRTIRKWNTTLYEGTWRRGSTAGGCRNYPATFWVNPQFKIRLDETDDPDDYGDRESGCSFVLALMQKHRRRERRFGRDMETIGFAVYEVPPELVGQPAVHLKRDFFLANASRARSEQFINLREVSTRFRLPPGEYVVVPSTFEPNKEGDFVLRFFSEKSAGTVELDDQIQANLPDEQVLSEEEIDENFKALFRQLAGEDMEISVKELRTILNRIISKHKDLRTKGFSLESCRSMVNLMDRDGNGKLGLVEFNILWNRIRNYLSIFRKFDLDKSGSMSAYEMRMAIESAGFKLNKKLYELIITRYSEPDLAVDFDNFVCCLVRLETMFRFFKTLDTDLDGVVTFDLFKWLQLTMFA
T4 sequence (P04632 1-268 partner): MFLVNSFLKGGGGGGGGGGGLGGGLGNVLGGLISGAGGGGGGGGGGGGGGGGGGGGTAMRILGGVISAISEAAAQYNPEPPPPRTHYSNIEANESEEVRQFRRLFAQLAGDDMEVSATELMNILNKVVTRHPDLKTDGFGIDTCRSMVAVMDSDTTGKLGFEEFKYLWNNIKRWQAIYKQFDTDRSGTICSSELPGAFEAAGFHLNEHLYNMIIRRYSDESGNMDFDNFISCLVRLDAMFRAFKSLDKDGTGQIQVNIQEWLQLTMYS
Kind of experiment: Calpain I enzyme inhibition in vitro (kinetic fluorescence assay). The settings on record: apparent Ki from IC50 (Cheng-Prussoff); 20 nM calpain-I, 100 μM Suc-Leu-Tyr-AMC, pH 7.3, room temperature. In outline:
as §1

In experiment [5] the target is T5, cathepsin L isolated from human liver (Homo sapiens, UniProt P07711).
T5 construct: cathepsin L—isolated from human liver; purchased Calbiochem 219402; host or cells: human liver (tissue-derived)
T5 sequence (P07711 114-333): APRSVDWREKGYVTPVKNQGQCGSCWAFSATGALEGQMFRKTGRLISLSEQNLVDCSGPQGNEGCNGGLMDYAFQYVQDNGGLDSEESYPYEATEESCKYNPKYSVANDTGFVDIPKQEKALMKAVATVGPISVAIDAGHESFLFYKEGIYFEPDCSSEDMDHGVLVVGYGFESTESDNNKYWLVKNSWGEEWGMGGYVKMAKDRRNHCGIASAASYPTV
Kind of experiment: Cathepsin L enzyme inhibition in vitro (kinetic fluorescence assay). The settings on record: Ki(cathepsin L)/Ki(calpain) ratio. Here is the method:
Testing for blockade of the corresponding enzymic activities was carried out by means of kinetic fluorescence assays (excitation 390 nm, emission 460 nm).
Apparent Ki values were calculated from the experimentally determined IC50 values by the Cheng-Prussoff relation assuming a reversible competitive enzyme inhibition. The Km values of the substrates used under the assay conditions indicated above were: 90 μM (Z-Phe-Arg-AMC, cathepsin B), 10 μM (Z-Gly-Pro-Arg-AMC, cathepsin K), 2 μM (Z-Phe-Arg-AMC, cathepsin L), and 30 μM (Z-Val-Val-Arg-AMC, cathepsin S).
The indicated Ki values are averages of the inhibition constants calculated on the basis of 2 to 4 independent dose-effect plots.
• 20 nM calpain-I—isolated from human erythrocytes (Calbiochem #208713), 100 μM Suc-Leu-Tyr-AMC (Bachem #I-1355) as substrate in buffer with 62 mM imidazole, 0.3 mM CaCl2, 0.10% CHAPS, 0.05% BSA, 1 mM DTT at pH 7.3 and room temperature. 1. Cathepsin B: • 0.25 nM cathepsin B—isolated from human liver (Calbiochem #219362), 100 μM Z-Phe-Arg-AMC (Bachem #I-1160) as substrate 50 mM MES, 2 mM EDTA, 0.05% Brij 35, 2.5 mM L-cysteine, pH 6.0, room temperature. 3. Cathepsin K: • 3 nM cathepsin K activated from recombinant human procathepsin K from E. coli (Calbiochem #342001), 10 μM Z-Gly-Pro-Arg-AMC (Biomol #P-142) as substrate in 50 mM MES, 2 mM EDTA, 0.05% Brij 35, 2.5 mM L-cysteine, pH 6.0, room temperature. 4. Cathepsin L: • 1 nM cathepsin L—isolated from human liver (Calbiochem #219402), 2 μM Z-Phe-Arg-AMC (Bachem #I-1160) as substrate in 50 mM MES, 2 mM EDTA, 0.05% Brij 35, 2.5 mM L-cysteine, pH 6.0, room temperature. 5. Cathepsin S: • 0.5 nM recombinant human cathepsin S from E. coli (Calbiochem #219343), 20 μM Z-Val-Val-Arg-AMC (Bachem #I-1540) as substrate in 50 mM MES, 2 mM EDTA, 0.05% Brij 35, 2.5 mM L-cysteine, pH 6.0, room temperature.

T3 sequence (P25774 115-331): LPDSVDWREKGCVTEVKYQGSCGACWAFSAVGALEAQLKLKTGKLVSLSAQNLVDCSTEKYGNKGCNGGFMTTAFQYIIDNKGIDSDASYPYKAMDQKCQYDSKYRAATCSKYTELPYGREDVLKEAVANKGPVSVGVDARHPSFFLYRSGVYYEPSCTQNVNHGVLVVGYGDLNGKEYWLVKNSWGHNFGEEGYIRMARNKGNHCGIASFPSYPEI

On to `CCNC(=O)C(=O)C(Cc1ccccc1)NC(=O)[C@H]1CCC(=O)N1Cc1c(Cl)cccc1Cl` (mixture of isomers) [Example 62, (2R)-1-(2,6-Dichlorobenzyl)-N-(4-(ethylamino)-3,4-dioxo-1-phenylbutan-2-yl)-5-oxopyrrolidine-2-carboxamide], for which the “Sel cat. K” value in experiment [1] is recorded as “++ (10<Ki(cathepsin B)/Ki(calpain)≦30)”. In addition, the “Sel cat. B” value in experiment [2] is recorded as “++ (10<Ki(cathepsin B)/Ki(calpain)≦30)”. The “Sel cat. S” value in experiment [3] is “++ (30<Ki(cathepsin B)/Ki(calpain)≦100)”. Besides, in experiment [4], the Ki lay within 100 to 600 nM. Moreover, the “Sel cat. L” value in experiment [5] is reported as “++ (10<Ki(cathepsin B)/Ki(calpain)≦30)”.
`O=C(NCc1ccncc1)C(=O)C(Cc1ccccc1)NC(=O)[C@H]1CCC(=O)N1Cc1ccccc1` (mixture of isomers) [Example 63, (2R)-1-Benzyl-N-(3,4-dioxo-1-phenyl-4-(pyridin-4-ylmethylamino)butan-2-yl)-5-oxopyrrolidine-2-carboxamide]: in experiment [1], the “Sel cat. K” value was “+++ (Ki(cathepsin K)/Ki(calpain) ratio of >30)”. Also, the “Sel cat. B” value in experiment [2] was “+++ (Ki(cathepsin B)/Ki(calpain) ratio of >30)”. Also, the “Sel cat. S” value in experiment [3] is “+++ (Ki(cathepsin S)/Ki(calpain) ratio of >100)”. Also, the Ki in experiment [4] fell in the range of 50 to 100 nM. The “Sel cat. L” value in experiment [5] is “+++ (Ki(cathepsin L)/Ki(calpain) ratio of >30)”.
On the same counts, the results for `O=C(Nc1ccccc1)C(=O)C(Cc1ccccc1)NC(=O)[C@H]1CCC(=O)N1Cc1ccccc1` (mixture of isomers) [Example 65, (2R)-1-Benzyl-N-(3,4-dioxo-1-phenyl-4-(phenylamino)butan-2-yl)-5-oxopyrrolidine-2-carboxamide] are “+++ (Ki(cathepsin K)/Ki(calpain) ratio of >30)”, “+++ (Ki(cathepsin B)/Ki(calpain) ratio of >30)”, “+++ (Ki(cathepsin S)/Ki(calpain) ratio of >100)”, 50 to 100 nM and “+++ (Ki(cathepsin L)/Ki(calpain) ratio of >30)”.
Turning to `O=C(NCc1ccc2c(c1)OCO2)C(=O)C(Cc1ccccc1)NC(=O)[C@H]1CCC(=O)N1Cc1ccccc1` (mixture of isomers) [Example 66, (2R)—N-(4-(Benzo[d][1,3]-dioxol-5-ylmethylamino)-3,4-dioxo-1-phenylbutan-2-yl)-1-benzyl-5-oxopyrrolidine-2-carboxamide], the “Sel cat. K” value in experiment [1] is given as “++ (10<Ki(cathepsin B)/Ki(calpain)≦30)”. The “Sel cat. B” value in experiment [2] is listed as “+++ (Ki(cathepsin B)/Ki(calpain) ratio of >30)”. The “Sel cat. S” value in experiment [3] is “+++ (Ki(cathepsin S)/Ki(calpain) ratio of >100)”. For the same compound, the Ki in experiment [4] was in the range of 50 to 100 nM. In addition, in experiment [5], the “Sel cat. L” value was “++ (10<Ki(cathepsin B)/Ki(calpain)≦30)”.
Consider `O=C(NCc1ccc(F)cc1)C(=O)C(Cc1ccccc1)NC(=O)[C@H]1CCC(=O)N1Cc1ccccc1` (mixture of isomers) [Example 67, (2R)-1-Benzyl-N-(4-(4-fluorobenzylamino)-3,4-dioxo-1-phenylbutan-2-yl)-5-oxopyrrolidine-2-carboxamide], for which the “Sel cat. K” value in experiment [1] is listed as “+++ (Ki(cathepsin K)/Ki(calpain) ratio of >30)”. The “Sel cat. B” value in experiment [2] is “+++ (Ki(cathepsin B)/Ki(calpain) ratio of >30)”. In experiment [3], the “Sel cat. S” value is on record as “+++ (Ki(cathepsin S)/Ki(calpain) ratio of >100)”. The Ki in experiment [4] was under 50 nM. Besides, the “Sel cat. L” value in experiment [5] was “+++ (Ki(cathepsin L)/Ki(calpain) ratio of >30)”.
For `NC(=O)C(=O)C(Cc1ccccc1)NC(=O)[C@H]1CCC(=O)N1Cc1cccc(Cl)c1` (stereo partly drawn) [Example 3, (2R)—N-(4-Amino-3,4-dioxo-1-phenylbutan-2-yl)-1-(3-chlorobenzyl)-5-oxopyrrolidine-2-carboxamide] the same measures were “+++ (Ki(cathepsin K)/Ki(calpain) ratio of >30)”, “++ (10<Ki(cathepsin B)/Ki(calpain)≦30)”, “+++ (Ki(cathepsin S)/Ki(calpain) ratio of >100)”, under 50 nM and “++ (10<Ki(cathepsin B)/Ki(calpain)≦30)”.
Take `NC(=O)C(=O)C(Cc1ccccc1)NC(=O)[C@H]1CCC(=O)N1Cc1ccc(F)cc1` (stereo partly drawn) [Example 5, (2R)—N-(4-Amino-3,4-dioxo-1-phenylbutan-2-yl)-1-(4-fluorobenzyl)-5-oxopyrrolidine-2-carboxamide]: the “Sel cat. K” value in experiment [1] is reported as “++ (10<Ki(cathepsin B)/Ki(calpain)≦30)”. For the same compound, the “Sel cat. B” value in experiment [2] is “++ (10<Ki(cathepsin B)/Ki(calpain)≦30)”. The “Sel cat. S” value in experiment [3] was “++ (30<Ki(cathepsin B)/Ki(calpain)≦100)”. Further, the Ki in experiment [4] was 50 to 100 nM. Besides, in experiment [5], the “Sel cat. L” value is reported as “++ (10<Ki(cathepsin B)/Ki(calpain)≦30)”.
In the case of `NC(=O)C(=O)C(Cc1ccccc1)NC(=O)[C@H]1CCC(=O)N1Cc1cccc(F)c1` (stereo partly drawn) [Example 8, (2R)—N-(4-Amino-3,4-dioxo-1-phenylbutan-2-yl)-1-(3-fluorobenzyl)-5-oxopyrrolidine-2-carboxamide], the “Sel cat. K” value in experiment [1] was “++ (10<Ki(cathepsin B)/Ki(calpain)≦30)”. The “Sel cat. B” value in experiment [2] is listed as “+++ (Ki(cathepsin B)/Ki(calpain) ratio of >30)”. Further, the “Sel cat. S” value in experiment [3] is “+++ (Ki(cathepsin S)/Ki(calpain) ratio of >100)”. Also, the Ki in experiment [4] fell in the range of 50 to 100 nM. For the same compound, in experiment [5], the “Sel cat. L” value was “++ (10<Ki(cathepsin B)/Ki(calpain)≦30)”.
For `N#Cc1cccc(CN2C(=O)CC[C@@H]2C(=O)NC(Cc2ccccc2)C(=O)C(N)=O)c1` (stereo partly drawn) [Example 16, (2R)—N-(4-Amino-3,4-dioxo-1-phenylbutan-2-yl)-1-(3-cyanobenzyl)-5-oxopyrrolidine-2-carboxamide], in experiment [1], the “Sel cat. K” value is listed as “+++ (Ki(cathepsin K)/Ki(calpain) ratio of >30)”. Also, the “Sel cat. B” value in experiment [2] is given as “++ (10<Ki(cathepsin B)/Ki(calpain)≦30)”. The “Sel cat. S” value in experiment [3] is given as “+ (10<Ki(cathepsin S)/Ki(calpain)≦30)”. For the same compound, the Ki in experiment [4] fell in the range of 100 to 600 nM. Moreover, the “Sel cat. L” value in experiment [5] is listed as “++ (10<Ki(cathepsin B)/Ki(calpain)≦30)”.
